Converted amounts (≈) assume the structure as drawn. Positions of bridges follow the written chain, without caps; N, C: chain ends. Non-standard residues stand in square brackets, D forms with d. Residues, ends and D or L forms follow the SMILES beside them. Chains are numbered I, II in the order given. *: point of attachment. X1 = CC[C@H](C)CCCCC(=O)*; Dab = NCC[C@H](N)C(=O)O
Columns and labels:
[1] = test system: E. coli D21 and LPS outer core polysaccharide truncated mutant strains; test: MIC ratio against LPS-truncated E. coli mutants; format: cell-based; conditions: oligosaccharide-truncated mutants vs wild type D21; increase seen against D21e9 lacking outer core polysaccharides
Description: LPS is a complex glycosylated lipid molecule comprising of a hydrophobic lipid A and core oligosaccharides. The core oligosaccharides are structurally divided into an inner core (lipid A proximal) region and an outer core O-antigen region (Fig. 4a). To ascertain if the alterations in OM polysaccharides modify the barrier penetration and antimicrobial properties of the peptides, we determined the MIC of the peptides against 4 cell-wall defective mutants of E. coli (Fig. 4a). We report the MIC ratio (i.e., MICmut/MICwt) which is the ratio of MIC of peptides/antibiotics against oligosaccharides truncated mutant strains over MIC of wild type (D21) strains. For antibiotics that access intracellular targets through porin pathways or peptides that bind to the lipid A part of the LPS, the MIC ratio is independent of LPS truncation (Fig. 4b). However, antibiotics or peptides which interact with outer or inner core polysaccharides of the LPS are expected to show changes in the MIC ratio.
All the peptide congeners were purchased from M/s. Mimotopes Pty Ltd, Australia. The peptides were used as such and the homogeneity of peptides were confirmed by HPLC. Unless otherwise stated all the chemicals and the antibiotics tested were purchased from Sigma Aldrich (Singapore) Pte Ltd. The florescent probe, BODIPY TR cadaverine (BC) was purchased from Molecular Probes/ Invitrogen (CA, USA). E. coli LPS outer core polysaccharide truncated mutant strains were obtained from CGSG, The Coli Genetic Stock Centre, Yale University, […], USA. Relevant genotype of the strains are, D21 (rfa+); D21e19 (rfa-11) is a deficient mutant in carbohydrates close to the O-antigen part; D21e7 (rfa-1) is deficient in galactose as well as O-antigen; D21f1 (rfa-1, rfa21) lacks phosphate groups in the LPS has glucose and heptose intact; D21f2 (rfa-1, rfa-31) is deficient in heptose of the inner core[57][58].
(§1) MIC of each peptide was determined using the microdilution method in a 96 well microtitre plates (SPL Life Sciences Co., Ltd, Korea). Two-fold serial dilutions of each peptide in Mueller-Hinton Broth (MHB) was prepared from a 1 mg/ml stock solution of the peptide in the same broth, to obtain a final concentration in the range of 0.0976–50 μg/ml in each well. Bacterial suspensions (P. aeruginosa ATCC 27853, P. aeruginosa 4877, P. aeruginosa 23155, K. pneumoniae ATCC 10031 and K. pneumoniae 4299) were prepared by suspending the overnight cultured bacteria in saline and adjusting the inoculum to ~10^8 colony forming units (CFU) per ml. A further 150-fold dilution was then prepared in MHB to achieve a final cell density of 10^5–10^6 CFU/ml. In each well, 100 μl of inoculum was mixed with the equal volume of peptides at their 2× concentration. Positive and negative controls contained 200 μl of inoculum (without any peptide) and broth alone (no peptide/inoculum) respectively. Another negative control in which MHB containing 200 μl of peptide alone in its highest concentration tested (50 μg/ml) was also included to ensure that the optical density measured in the test wells was not due to turbidity of the peptides in solution. The 96 well polystyrene plates were then incubated at 37 °C for 24 h and the optical density at 600 nm (OD600) was measured every 30 min continuously using a TECAN microplate reader (TECAN Infinite 200, Austria). All the experiments were performed in two independent duplicates and the MIC was determined as the lowest peptide concentration in which no visible growth was observed.

[2] = test system: A549 cells infected with P. aeruginosa ATCC 9027; test: Intracellular bacterial load in infected A549 cells; format: cell-based; conditions: 24 h; for Intracellular bacterial load: antibiotic alone, gatifloxacin at 2 μg/ml
Method: Human lung A549 epithelial cells (ATCC CCL185) were seeded at a density of 10^5 cells/well in a 24 well plate. Next day cells were infected with P. aeroginosa 9027 strains at the multiplicity of infection of 5 for 2 h. Cells were then washed thrice with PBS followed by DMEM to remove the extracellular bacteria. The washed cells were subsequently treated with 200 μg/ml gentamicin to kill any extracellular bacteria. After 1 h cells were washed with PBS again to remove the dead bacteria and the cells were either mixed with antibiotics (Tobramycin or Gatifloxacin) alone or in combination with B2088. After 24 h, the cells were lysed with 0.1% Triton-X100 and the lysates were serially diluted and plated on to a tryptic soy agar (TSA) plates for colony counting.

K. pneumoniae 07955 = test: microbe, parasite or virus in culture; format: cell-based; conditions: for MIC: Klebsiella pneumoniae, 07955, individual peptide/antibiotics, read-out: MIC against K. pneumoniae 07955
K. pneumoniae 31158 = test: microbe, parasite or virus in culture; format: cell-based; conditions: for MIC: Klebsiella pneumoniae, 31158, individual peptide/antibiotics, read-out: MIC against K. pneumoniae 31158
K. pneumonia 4299 = test: microbe, parasite or virus in culture; format: cell-based, K. pneumoniae; conditions: for MIC: Klebsiella pneumoniae, 4299, individual peptide/antibiotics, read-out: MIC against K. pneumoniae 4299
Procedure, shortened: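 Peptides two-fold diluted in Mueller-Hinton Broth (0.0976–50 μg/ml final) against 10^5–10^6 CFU/ml inoculum, 37 °C for 24 h with OD600 monitored every 30 min. MIC = lowest concentration with no visible growth; two independent duplicates.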

P. aeruginosa DR4877/07 = test: microbe, parasite or virus in culture; conditions: for MIC: Pseudomonas aeruginosa, DR4877/07, 24 h, read-out: MIC of antibiotics
Method: as §1, with “Austria).” for “Austria). All the experiments were performed in two independent duplicates and the MIC was determined as the lowest peptide concentration in which no visible growth was observed.”

[3] = MHB, 10^5–10^6 CFU/ml, 37 °C, 24 h, two independent duplicates

SMILES | MIC ratio (MICmut/MICwt) [1] | Intracellular bacterial burden ([2]; B2088 alone at 200 μg/ml) | MIC against K. pneumoniae 07955 (K. pneumoniae 07955; 07955, 24 h) [µg/mL] | MIC against K. pneumoniae 31158 (K. pneumoniae 31158; 31158, 24 h) [µg/mL] | MIC against K. pneumoniae 4299 (K. pneumonia 4299; 24 h) [µg/mL] | Minimum Inhibitory Concentration against K. pneumonia 4299 (K. pneumonia 4299; 24 h) [µM] | Intracellular bacterial load [2] | MIC (P. aeruginosa DR4877/07) [µg/mL] | MIC (K. pneumoniae 07955) [µg/mL] | MIC (K. pneumoniae 31158) [µg/mL] | MIC (K. pneumonia 4299) [µg/mL] | Minimum Inhibitory Concentration against P. aeruginosa DR4877/07 (P. aeruginosa DR4877/07; [3]) [µM] | MIC of Polymyxin B against this strain (P. aeruginosa DR4877/07; alone) [µg/mL] | Minimum Inhibitory Concentration against K. pneumonia 4299 (K. pneumonia 4299; [3]) [µM]
CC(C)[C@H](NC(=O)[C@H](CCCCN)NC(=O)[C@H](CCCNC(=N)N)NC(=O)CNC(=O)[C@@H](N)CCCNC(=N)N)C(=O)N[C@H](C(=O)N[C@@H](CCCNC(=N)N)C(=O)N[C@@H](CCCNC(=N)N)C(=O)NCCCC[C@H](NC(=O)[C@H](CCCNC(=N)N)NC(=O)[C@H](CCCNC(=N)N)NC(=O)[C@@H](NC(=O)[C@@H](NC(=O)[C@H](CCCCN)NC(=O)[C@H](CCCNC(=N)N)NC(=O)CNC(=O)[C@@H](N)CCCNC(=N)N)C(C)C)C(C)C)C(=O)N[C@@H](CCCCN)C(=O)O)C(C)C [B2088] (I: H-RGRKVVRRKK-OH / II: H-RGRKVVRR; amide I:9-II:C; N-terminus and C-terminus assumed) | no apparent change | did not decrease the intracellular bacterial burden | 6.25 (≈ 2.73 µM) | 12.5 (≈ 5.46 µM) | 12.5 (≈ 5.46 µM) | 2.7 | – | – | – | – | – | – | – | –
COc1c(N2CCNC(C)C2)c(F)cc2c(=O)c(C(=O)O)cn(C3CC3)c12 (stereo not drawn) [Gatifloxacin] | – | – | – | – | – | – | marked decrease in the intracellular bacterial burden | 31.2 | 1.56 (≈ 4.16 µM) | 1.56 (≈ 4.16 µM) | 1.56 (≈ 4.16 µM) | – | – | –
CC[C@H](C)CCCCC(=O)N[C@@H](CCN)C(=O)N[C@H](C(=O)N[C@@H](CCN)C(=O)N[C@H]1CCNC(=O)[C@H]([C@@H](C)O)NC(=O)[C@H](CCN)NC(=O)[C@H](CCN)NC(=O)[C@H](CC(C)C)NC(=O)[C@@H](Cc2ccccc2)NC(=O)[C@H](CCN)NC1=O)[C@@H](C)O [Polymyxin B, polymyxin B, reference compound] (X1-[Dab]T[Dab][Dab][Dab][dF]L[Dab][Dab]T; lactam 4-C (inferred); N-terminus assumed) | did not show any change | – | – | – | – | – | – | – | – | – | – | 1.13 | 1.56 | 1.13
NC[C@H]1O[C@H](O[C@H]2[C@H](O)[C@@H](O[C@H]3O[C@H](CO)[C@@H](O)[C@H](N)[C@H]3O)[C@H](N)C[C@@H]2N)[C@H](N)C[C@@H]1O [Tobramycin] | marked increase | – | – | – | – | – | decreased the intracellular bacterial load | 800 | 25 (≈ 53.5 µM) | 0.012 (≈ 0.0257 µM) | 0.024 (≈ 0.0513 µM) | – | – | –
